The source of these data is patent EP2353599A1, “8-hydroxyquinolines as inhibitors of cathepsin B” (University of Ljubljana, priority 2010, dated 2011).

Assay [1] has as its target T1, Cathepsin B (Homo sapiens, UniProt P07858). Kind of assay: Reversibility of cathepsin B inhibition by enzyme kinetics (100-fold dilution of enzyme-inhibitor complex). Format: biochemical. Conditions: for enzyme inhibition after dilution of the complex: inhibitor at 10-fold IC50, 100-fold dilution. How it is done:
Reversibility of cathepsin B inhibition with 5-nitro-8-hydroxyquinoline was determined with three independent experiments. First, we used enzyme kinetics. Cathepsin B at 100-fold its final assay concentration (10 nM) and 5-nitro-8-hydroxyquinoline at 10-fold its IC50 were incubated for 5, 15 and 30 min at room temperature at 2 µl. The enzyme-inhibitor complex was then diluted 100-fold with 5 µM Z-RR-AMC to a final volume of 200 µl, initiating the reaction. Before the dilution of the enzyme-inhibitor complex the enzyme's activity is inhibited by 90 %. In the case of a reversible inhibitor after dilution this percentage is reduced to 9 %. In the case of an irreversible inhibitor the percentage stays unchanged (90 %).

Assay [2] concerns MCF-10A neoT cells. Nature of the assay: Three-dimensional in vitro invasion model based on spheroids. Conditions: 10 µM, Matrigel. The format is cell-based. How it is done:
The ability of 5-nitro-8-hydroxyquinoline to inhibit tumour cell invasion was also tested in a three-dimensional in vitro invasion model based on spheroids. Multicellular tumour spheroids were prepared according to hanging drop method (Kelm JM, Timmins NE, Brown CJ, Fussenegger M, Nielsen LK: Method for generation of homogeneous multicellular tumour spheroids applicable to a wide variety of cell types. Biotechnol Bioeng 2003, 83:173-80.). Drops (20 µl) of MCF-10A neoT cell suspension ([…]) were placed onto the lids of 10 cm dishes which were inverted over dishes containing 10 ml of PBS. Upon inversion of the tray the cells accumulated at the free liquid-air interface in this way forming spheroids after sufficient sedimentation time, in our case 6 days. Wells of a 24-well plate were filled with 400 µl of Matrigel (5mg/ml) containing the 5-nitro-8-hydroxyquinoline at the final concentration of 10 µM. After 15 min incubation at 37 °C 1 ml of medium with the test compound (10 µM) was placed on top of Matrigel. Spheroids were then carefully plated into the wells and incubated at 37 °C in a humidified atmosphere containing 5 % CO2. Images of spheroids were obtained using an Olympus IX 81 motorized inverted microscope and CellR software.

The target of assay [3] is T1, Cathepsin B. Nature of the assay: Cathepsin B exopeptidase activity, enzyme kinetics with substrate Abz-GIVRAK(Dnp)-OH. Format: biochemical. How it is done: The effect of 5-nitro-8-hydroxyquinoline on cathepsin B exopeptidase activity was assessed with an exopeptidase substrate Abz-GIVRAK(Dnp)-OH. 5 µl of Abz-GIVRAK(Dnp)-OH (final concentration 1, 3 and 6 µM) and 5 µl of 5-nitro-8-hydroxyquinoline at increasing concentrations were added to wells of a black microplate. 90 µl of human recombinant cathepsin B was then added to a final concentration of 0.25 nM in activation buffer (60 mM acetate buffer, pH 5.0 with 0.1 % PEG, 5 mM DTT and 1.5 mM EDTA). All assay mixtures contained a constant amount of DMSO, i.e. 5 %.
Formation of fluorescent degradation product was continuously monitored at 320 nm ± 20 nm excitation and 420 nm ± 10 nm emission wavelengths on Tecan Safire^2™ at 37°C. Mechanism and the constant of inhibition (Ki) of cathepsin B exopeptidase activity were determined using the graphical method according to Cornish-Bowden (Cornish-Bowden A: A Simple Graphical Method for Determining the Inhibition Constants of Mixed, Uncompetitive and Non-Competitive Inhibitors. Biochem J 1974, 137:143-4.) and using the SigmaPlot® 11, Enzyme Kinetics Module™ 1.3.

In assay [4] the test system is MCF-10A neoT cells. Kind of assay: Intracellular DQ-collagen IV degradation by flow cytometry. The format is cell-based. Conditions: 50 µM, shift in fluorescence intensity. How it is done:
Inhibition of intracellular DQ-collagen IV degradation was observed by flow cytometry by a shift in fluorescence intensity. 5 × 10^4 MCF-10A neoT cells in complete medium were plated into the wells of a 24-well plate and allowed to attach over night. Afterwards, the medium was replaced with 500 µl of serum free medium with 5-nitro-8-hydroxyquinoline, CA-074 or CA-074Me (50 µM). After 2 h incubation the medium was again replaced with serum free medium containing inhibitors (50 µM) and DQ-collagen IV (5 µg/ml). DMSO was used as a control. For the experiment only viable cells were selected using propidium iodide. The measurements were performed on a FACS Calibur instrument (Beckton Dickinson, Inc.).

The test system of another assay is MCF-10A neoT cell. Kind of assay: DQ-collagen IV degradation by fluorescence microscopy. Format: cell-based. Conditions: 10 µM, 24 h. How it is done:
5-nitro-8-hydroxyquinoline was also tested for the ability to inhibit intracellular and extracellular degradation of DQ-collagen IV. First, inhibitory effect was observed using fluorescence microscopy. Wells of precooled Lab-Tek™ Chambered Coverglass (Nalge Nunc International) were coated with 25 µg/ml of the quenched fluorescent substrate DQ-collagen IV suspended in 40 µl of 100 % Matrigel for 10 min at 4°C. DQ-collagen IV/Matrigel matrix was allowed to polymerize for 40 min at 37°C. 400 µl of MCF-10A neoT cell suspension (1.5x10^5/ml) in growth medium containing 2 % Matrigel and 10 µM of 5-nitro-8-hydroxyquinoline were plated onto gelled Matrigel. After 24 h incubation at 37°C with 5 % CO2 the samples were monitored for fluorescent degradation products using Olympus IX 81 motorized inverted microscope and CellR software. CA-074 and CA-074Me were used as positive controls.

Assay [5] deals with T1, Cathepsin B. Kind of assay: Cathepsin B endopeptidase activity, enzyme kinetics with substrate Z-RR-AMC. Format: biochemical. How it is done: The effect of 8-hydroxyquinolines on cathepsin B enzymatic activity was assessed using enzyme kinetics. First, the effect of 8-hydroxyquinolines on cathepsin B endopeptidase activity was assessed using the cathepsin B specific endopeptidase substrate Z-RR-AMC. 5 µl of the Z-RR-AMC (final concentration 60, 180 and 360 µM) and 5 µl of respective compound at increasing concentrations were added to wells of a black microplate. 90 µl of human recombinant cathepsin B was then added to a final concentration of 0.4 nM in activation buffer (100 mM phosphate buffer, pH 6.0 with 0.1 % PEG, 5 mM DTT and 1.5 mM EDTA). All assay mixtures contained a constant amount of DMSO, i.e. 5 %. Formation of fluorescent degradation product was continuously monitored at 380 nm ± 20 nm excitation and […] ± 10 nm emission wavelengths on Tecan Safire^2™ at 37°C. Mechanism and the constant of inhibition (Ki) of cathepsin B endopeptidase activity were determined using the graphical method according to Cornish-Bowden (Cornish-Bowden A: A Simple Graphical Method for Determining the Inhibition Constants of Mixed, Uncompetitive and Non-Competitive Inhibitors. Biochem J 1974, 137:143-4.) and using the SigmaPlot® 11, Enzyme Kinetics Module™ 1.3. Table I. Results of testing the compounds according to Formula (I) on cathepsin B endopeptidase activity.

For `O=[N+]([O-])c1ccc(O)c2ncccc12` [Compound 1, 5-nitro-8-hydroxyquinoline], the “enzyme inhibition after dilution of the complex” value on Cathepsin B [1] (5 min incubation) was 21.7 ± 2.2%; on Cathepsin B [1] (15 min incubation) it was 25.2 ± 3.5%; on Cathepsin B [1] (30 min incubation) it was 27.6 ± 3.2%. For the same molecule, the “calculated value of inhibition” value at Cathepsin B [1] (expected inhibition after dilution considering the Hill coefficient) is listed as 15%. For the same molecule, the “inhibition of tumour invasion in three-dimensional spheroid model” value in the assay on MCF-10A neoT cells [2] is “completely abrogated the invasive activity at the edge of the spheroid”. Further, the Mechanism of inhibition result on Cathepsin B [3] (cathepsin B exopeptidase activity) is given as “non-competitive”; at Cathepsin B [5] (cathepsin B endopeptidase activity), “uncompetitive inhibition”. Besides, the Ki was 220 ± 13.3 µM on Cathepsin B [3] (exopeptidase activity, substrate Abz-GIVRAK(Dnp)-OH, pH 5.0, 37°C) and 37.7 ± 3.5 µM on Cathepsin B [5] (endopeptidase activity, substrate Z-RR-AMC, pH 6.0, 37°C). In addition, the “inhibits endopeptidase activity more potently than exopeptidase activity” value on Cathepsin B [3] (ratio of exopeptidase Ki to endopeptidase Ki) came to 5.8 times. In addition, the “inhibition of intracellular DQ-collagen IV degradation” value with MCF-10A neoT cells [4] was “significantly inhibits”. Further, the “inhibition of DQ-collagen IV degradation (fluorescence microscopy)” value in the assay with MCF-10A neoT cell is “inhibited both intracellular and extracellular DQ-collagen IV degradation”.

As a reminder, the Ki is the dissociation constant of the complex between target and ligand, obtained from inhibition or displacement.
